Test results as given in patent publication US11479802B2, “Assays for screening activity of modulators of members of the hydroxy steroid (17-beta) dehydrogenase (HSD17B) family” (Regeneron Pharmaceuticals, Inc., priority 2017, dated 2022).
Structures can show the parent of a compound that is named as a salt.

Target: T1, human HSD17B13 (Homo sapiens, UniProt Q7Z5P4)
T1 sequence (Q7Z5P4 20-300): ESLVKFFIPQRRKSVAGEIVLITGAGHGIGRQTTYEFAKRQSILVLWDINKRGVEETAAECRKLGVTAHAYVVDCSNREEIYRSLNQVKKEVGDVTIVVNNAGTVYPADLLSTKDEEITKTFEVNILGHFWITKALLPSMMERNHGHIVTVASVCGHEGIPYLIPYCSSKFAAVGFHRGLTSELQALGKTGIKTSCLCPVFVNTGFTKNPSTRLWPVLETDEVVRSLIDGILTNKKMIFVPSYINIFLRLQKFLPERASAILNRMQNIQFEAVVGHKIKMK
Assay: Substrate screening of steroid and bioactive lipid libraries against purified recombinant HSD17B13 (NADH-linked luciferase assay)
Type: biochemical
Settings: for HSD17B13 Enzymatic Activity Relative Light Units: 500 μM NAD+, 100 ng enzyme, 3 hours at 23° C.; for HSD17B13 Enzymatic Activity Percent Estradiol Control: normalized to 50 μM estradiol after subtraction of 5% DMSO
In short: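 Recombinant human HSD17B13 (100 ng) incubated 3 h at 23° C in 0.2 M Tris-HCl pH 7.5 with 500 μM NAD+ and 5 μM bioactive lipid or 50 μM steroid (5% DMSO). NADH measured by luciferase luminescence after 1 h; values as percent of 50 μM estradiol control after 5% DMSO subtraction.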

[1] = Bioactive Lipid Library, 5 μM bioactive lipid (Estradiol Control 50 μM)
[2] = Bioactive Lipid Library, 5 μM bioactive lipid

Compound | HSD17B13 Enzymatic Activity Relative Light Units [1] [RLU] | HSD17B13 Enzymatic Activity Percent Estradiol Control [2] [%] | HSD17B13 Enzymatic Activity Relative Light Units (Steroid Library, 50 μM steroid) [RLU] | HSD17B13 Enzymatic Activity Percent Estradiol Control (Steroid Library, 50 μM steroid) [%]
[2H]C([2H])(CC(=O)CC[C@H]1C(=O)C[C@H](O)[C@@H]1CCC(=O)O)C([2H])([2H])C([2H])([2H])C(=O)O [tetranor-PGDM-d6] | 375520 | 3.81 | – | –
CCCCC/C=C\C[C@H]1O[C@H]1C/C=C\C/C=C\CCCC(=O)NCCO [11(12)-EET Ethanolamide] | 440800 | 8.74 | – | –
CCCCCCCC[C@H](O)/C=C/C=C\C=C\[C@H](O)CCCC(=O)O [Leukotriene B3] | 2077280 | 141.82 | – | –
CC/C=C/C[C@H](O)/C=C/[C@@H]1[C@@H](C/C=C\CCCC(=O)O)[C@@H](O)C[C@H]1O (relative stereo) [17-trans Prostaglandin F3α] | 371720 | 7.01 | – | –
CCCCC[C@H](O)/C=C/[C@H]1[C@H](O)CC(=O)[C@@H]1C/C=C\CCCC(=O)Oc1ccc(NC(=O)c2ccccc2)cc1 [Prostaglandin E2 p-benzamidophenyl ester] | 404280 | 9.58 | – | –
CCCCCC(O)C=CC1OC(=O)CC(O)C1CC=CCCCC(=O)O (stereo not drawn) [11-dehydro Thromboxane B2] | 349160 | 5.22 | – | –
[2H]C([2H])(/C=C\C[C@H]1[C@@H](O)CC(=O)O[C@@H]1/C=C/[C@@H](O)CCCCC)C([2H])([2H])CC(=O)O [11-dehydro Thromboxane B2-d4] | 366280 | 3.11 | – | –
CCCCC[C@H](O)/C=C/[C@@H]1[C@@H](CCCCCCC(=O)O)[C@@H]2C[C@H]1OO2 [Prostaglandin H1] | 145840 | −10.85 | – | –
CCCCC/C=C\CC1OC1CCCCCCCC(=O)O (racemic) [(±)9(10)-EpOME] | 354560 | 2.23 | – | –
CC/C=C\C[C@H](O)/C=C/[C@@H]1[C@H]2C/C(=C/CCCC(=O)[O-])O[C@H]2C[C@H]1O.[Na+] [Prostaglandin I3 (sodium salt)] | 333560 | 3.99 | – | –
CC/C=C\C/C=C\C=C\C(O)C/C=C\C/C=C\C/C=C\CCC(=O)O (racemic) [(±)13-HDHA] | 1154720 | 64.54 | – | –
O=C(O)CCC/C=C\C[C@H]1C(=O)C[C@@H](O)[C@@H]1/C=C/[C@@H](O)CCCCCO [20-hydroxy Prostaglandin E2] | 348240 | 5.15 | – | –
CCCCC/C=C\C=C\[C@H](O)CCCCCCCCCC(=O)O (racemic) [(±)11-HEDE] | 1334080 | 77.87 | – | –
CCCCC[C@@H](O)/C=C/C=C\CCCCCCCC(=O)O [13(R)-HODE] | 1105960 | 60.91 | – | –
CC/C=C\C/C=C\C=C\[C@H](O)C/C=C\C/C=C\CCCC(=O)O [11(R)-HEPE] | 940920 | 48.64 | – | –
C[C@@H](O)CCC[C@H](O)CC[C@H]1[C@H](O)CC(=O)[C@@H]1CCCCCCC(=O)O [13,14-dihydro-19(R)-hydroxy Prostaglandin E1] | 337040 | 4.26 | – | –
D-myo-Inositol-1,2,3,4-tetraphosphate (sodium salt) | 447960 | 9.28 | – | –
C[C@]12Cc3c[nH]nc3C[C@@H]1CC[C@@H]1[C@@H]2CC[C@@]2(C)[C@H]1CC[C@]2(C)O [Stanazol] | – | – | 140840 | −0.35
CC/C=C\CC(O)C(O)C/C=C\C/C=C\C/C=C\CCCC(=O)O (racemic) [(±)14(15)-DiHETE] | 356480 | 2.37 | – | –
C[C@]12CCC(=O)C=C1CC[C@@H]1[C@@H]2[C@@H](O)C[C@]2(C=O)[C@@H](C(=O)CO)CC[C@@H]12 [Aldosterone] | – | – | 217400 | 0.99
CC(=O)[C@H]1CC[C@H]2[C@@H]3CCC4=CC(=O)CC[C@]4(C)[C@H]3CC[C@]12C [Progesterone] | – | – | 175680 | 0.26

Compound | HSD17B13 Enzymatic Activity Relative Light Units [1] [RLU] | HSD17B13 Enzymatic Activity Percent Estradiol Control [2] [%] | HSD17B13 Enzymatic Activity Relative Light Units (Steroid Library, 50 μM steroid) [RLU] | HSD17B13 Enzymatic Activity Percent Estradiol Control (Steroid Library, 50 μM steroid) [%]
CC/C=C\C/C=C\C/C=C\C/C=C\C=C\C(O)CCCC(=O)O (racemic) [(±)5-HEPE] | 344480 | 4.85 | – | –
CCCCC[C@H](O)/C=C/[C@@H]1[C@@H](CC(=O)CCC(=O)O)[C@@H](O)C[C@H]1O [2,3-dinor-6-keto Prostaglandin F1α (sodium salt)] | 341800 | 4.64 | – | –
CCCCC/C=C\C=C\[C@H](O)CCCCCCCCCC(=O)O [11(R)-HEDE] | 1674200 | 103.16 | – | –
(±)11(12)-EET | 306600 | 1.47 | – | –
CCCCC[C@H](O)/C=C/[C@H]1C(=O)CC(=O)[C@@H]1C/C=C\CCCC(=O)O [Prostaglandin K2] | 155600 | −10.08 | – | –
CC/C=C\C/C=C\C/C=C\CC(O)/C=C/C=C\C/C=C\CCC(=O)O (racemic) [(±)11-HDHA] | 1259280 | 72.31 | – | –
C[C@@H]1C[C@@]2(C)[C@@H](CC[C@@H]3[C@@H]2CC[C@@]2(C)[C@H]3CC[C@]2(C)O)CC1=O [Superdrol] | – | – | 105920 | −0.95
CCCCCC(O)/C=C/C=C\CCCCCCCC(=O)O (racemic) [(±)13-HODE] | 954080 | 49.62 | – | –
CCCCC[C@H](O)/C=C/C=C\C/C=C\C=C\[C@@H](O)CCCC(=O)O [5(S),15(S)-DiHETE] | 486600 | 14.86 | – | –
C[C@@H](O)CCC[C@H](O)/C=C/[C@@H]1[C@@H](C/C=C\CCCC(=O)O)[C@@H](O)C[C@H]1O [19(R)-hydroxy Prostaglandin F2α] | 371400 | 6.98 | – | –
CCCCC/C=C\C/C=C\C/C=C\C=C\C(=O)CCCC(=O)O [5-OxoETE] | 261280 | −1.90 | – | –
CCCCC/C=C\C/C=C\C=C\C(O)C/C=C\CCCC(=O)O (racemic) [(±)8-HETE] | 592720 | 22.75 | – | –
CC/C=C\C/C=C\C=C\C(O)C/C=C\C/C=C\CCCC(=O)O (racemic) [(±)11-HEPE] | 791920 | 37.56 | – | –
O=P(O)(O)O[C@@H]1C(O)[C@@H](OP(=O)(O)O)[C@@H](OP(=O)(O)O)C(O)[C@H]1OP(=O)(O)O (stereo partly drawn) [D-myo-Inositol-1,2,4,5-tetraphosphate (sodium salt)] | 403880 | 5.95 | – | –
C[C@]12CC[C@H](O)CC1=CC[C@@H]1[C@@H]2CC[C@]2(C)C(=O)CC[C@@H]12 [Dehydroepiandrosterone] | – | – | 196240 | 0.62
15-deoxy-Δ12,14-Prostaglandin J2-biotin | 252400 | −2.43 | – | –
CCCCC/C=C\C[C@H](O)/C=C/C=C/C=C\[C@@H](O)CCCC(=O)O [12-epi Leukotriene B4] | 389240 | 8.39 | – | –
CCCCC/C=C\C[C@@H](O)/C=C/C=C/C=C\[C@@H](O)CCCC(=O)N(C)C [Leukotriene B4 dimethyl amide] | 1910040 | 128.60 | – | –
CN(C)C(=O)CCSC(SCCC(=O)O)c1cccc(/C=C/c2ccc3ccc(Cl)cc3n2)c1 (stereo not drawn) [MK-571] | 281520 | −0.12 | – | –
CC(=O)OCC(=O)[C@@]1(O)CC[C@H]2[C@@H]3CCC4=CC(=O)CC[C@]4(C)[C@H]3C(=O)C[C@@]21C [Cortisone 21-acetate] | – | – | 200240 | 0.69
CC/C=C\C[C@H](O)/C=C/[C@@H]1[C@H](C/C=C\CCCC(=O)O)[C@@H](O)C[C@H]1O [8-iso Prostaglandin F3α] | 361040 | 6.16 | – | –
